According to patent publication US20190038556A1, “FORMULATIONS AND CARRIER SYSTEMS INCLUDING COMPOUND INTERACTIVE DOMAINS” (University of Pittsburgh - Of The Commonwealth System of …, priority 2012, published 2019):
Each block holds one molecule with its values, some of them ahead of it.

Columns and labels:
[1] = Solubilization of tested agents with multi-chain PEGylated micelle-forming surfactants (Table 1)
Text: The exact mechanism for the protection of ECGC against oxygen in the form of complex is unknown.

[2] = Particle size measurement by laser dynamic light scattering; type: physicochemical; conditions: agent formulated with multi-chain PEGylated micelle-forming surfactant
Experimental: 1(f). Particle size measurement. […] Samples were further diluted ten times in distilled water and sizes were measured by laser dynamic light scattering using a particle sizer (Zetasizer Nano ZS instrument, available from Malvern Instruments Ltd of Worcestershire, United Kingdom). Size measurement of emulsion particles were conducted using a Coulter N4 particle sizer after a 100-fold dilution in saline.

[3] = Oxidation of ECGC in PBS on exposure to air; type: physicochemical; conditions: exposed to air, free 24 hrs, complex over a week
rat red blood cells = assay: Hemolysis assay; type: cell-based; conditions: 2 hrs at 37° C., 5 mM
Experimental: We also examined the hemolytic activity of plain micelles prepared from PEG-lipid and lipopeptide conjugates on rat red blood cells and compared the results to two widely used ethoxylated nonionic surfactants: Triton X-100 and Tween 80. In the studies of FIG. 6, rat red blood cells (1%) were incubated with surfactants at indicated concentrations for 2 hrs at 37° C. After such incubation, supernatants were carefully withdrawn, measured for at OD540 nm, and calculated based on OD value under a condition that total hemolysis occurred.
1(j). Hemolysis assay. Rat red blood cells (RBCs) were isolated from freshly collected rat blood with added anticoagulant by washing three times with 10 volumes of cold PBS (1500 rpm for 10 min). RBCs were then diluted to 2% w/v with ice cold DPBS and utilized immediately for the hemolysis assay. One mL of diluted RBC suspension was treated with various concentrations (0-5 mM) of PEG-lipopeptides, Tween 80, and Triton X-100, respectively, and then incubated at 37° C. in an incubator shaker for 2 h. The samples were centrifuged at 1500 rpm for 10 min at 4° C., and 100 μL of supernatant from each sample was transferred into a 96-well plate. The release of hemoglobin was determined by the absorbance at 540 nm using a micro-plate reader. […] Hemoglobin release was calculated as (ODsample−ODnegative control)/(ODpositive control−ODnegative control)×100%.

[4] = Micelle-facilitated solubilization of JP4-039; type: physicochemical; conditions: at comparable molar ratios
Experimental: In the solubilization studies of FIG. 4, various amounts of tetra chain PEG5,000-lysyl-[lysyl-(α-Fmoc-ε-oleyol-lysine)2]2 were mixed with JP4-039 in CHCl3 followed by solvent evaporation, the drug-loaded micelles were prepared by hydration in saline. The amounts of solubilized JP4-030 were determined by OD448 measurements from supernatant.
Lipopeptides, amino acid derivatives or nitroxide compounds were first dissolved in chloroform. The solutions were aliquoted to a glass test tube, mixed well, then blown with a constant nitrogen stream to remove the bulk of the solvent. The residual solvent was removed by applying high vacuum for 2 hrs. To determine micelle-facilitated solubilization of JP4-039, various molar ratios of surfactant to drug were applied to make surfactant-drug mixture in water (final concentration of JP4-039 was 5 mg/mL). After at least 30 minutes, the samples were briefly centrifuged at 13,000 rpm. One half of the supernatants was recovered, to which an equal volume of ethanol was added to dissolve/disrupt micelle drug complexes. The amounts of drug in the samples were quantitated using OD448 nm.

[5] = Size distribution of PTX/PEG-Fmoc2 mixed nanomicelles (DLS); type: physicochemical
Experimental: 2(b)(iv). Preparation and biophysical characterization of PTX/PEG-Fmoc2 mixed micelles. Thin-film hydration method was utilized for preparation of PTX/PEG-Fmoc2 mixed nanomicelles. PEG-Fmoc2 and PTX in chloroform were well mixed in a glass tube at designated molar ratios. A thin film of carrier/drug mixture was generated through removal of the organic solvent by a gentle stream of nitrogen. The trace amount of solvent was further removed via vacuum for 2 h. Then the film was hydrated and suspended in DPBS by vortex to obtain a clear solution of PTX/PEG-Fmoc2 mixed nanomicelles. Any non-entrapped drug was removed by filtration through 220 nm PVDF syringe filter.
(§1) The size distribution of PTX/PEG-Fmoc2 mixed nanomicelles was examined by dynamic light scattering (DLS) via a Malvern Zeta Nanosizer, and the morphology was observed by transmission electron microscopy (TEM) after negative staining. The CMC measurement was performed as reported before with pyrene as a fluorescence probe. To quantify PTX in the micelles, PTX was extracted by methanol, and detected by Waters Alliance 2695-2998 high-performance liquid chromatography (HPLC) system with a RP-18 column (250 mm×4.6 mm) equipped with a UV detector at 227 nm at room temperature. A mixture of methanol/water (80:20, v/v) was used as mobile phase at a flow rate at 0.8 mL/min. The drug loading capacity (DLC) and efficiency (DLE) were calculated as set forth above.

[6] = CMC measurement with pyrene as a fluorescence probe; type: physicochemical
Experimental: as §1

[7] = system: 4T1.2 mouse metastatic breast cancer cell line; assay: In vitro cytotoxicity (MTT), 4T1.2; type: cell-based; conditions: 4T1.2, 72 h, FIG. 14A
Experimental: (§2) The tumor-inhibitory efficacy of PEG-Fmoc/PTX was also investigated both in vitro and in vivo. In vitro cytotoxicity of PEG-Fmoc/PTX was evaluated in mouse metastatic breast cancer cell line 4T1.2, and two human prostate cancer cell lines, PC-3 and DU145. […] Without limitation to any mechanism, the increased cytotoxicity of PEG-Fmoc/PTX may, for example, be attributable to facilitated entry of PTX into tumor cells.
(§3) 2(b)(viii). In Vitro Cytotoxicity. Mouse metastatic breast cancer cell line 4T1.2, and two human prostate cancer cell lines PC-3 and DU145 were utilized to evaluate the in vitro cytotoxicity of PTX/PEG-Fmoc2. Cells were seeded in 96-well plates at 1000 (4T1.2), 2000 (DU145) and 3000 (PC-3) cells per well. […] Seventy-two h later, 20 μL of 3-(4,5-dimethylthiazol-2-yl)-2,5-diphenyltetrazoliumbromide (MTT, 5 mg/mL) was added into each well. Following incubation for 4 h, the medium was removed and 150 μL of DMSO was added to each well to solubilize the formazan crystal. The absorbance of each well was detected at 550 nm with a reference wavelength at 630 nm using a microplate reader, and cell viability was calculated based on the formula below. Untreated cells were included as a control.
(§4) % cytotoxicity=[1−(ODtreat−ODblank)/(ODcontrol−ODblank)]×100%

[8] = system: PC-3 human prostate cancer cell line; assay: In vitro cytotoxicity (MTT), PC-3; type: cell-based; conditions: PC-3, 72 h, FIG. 14B
Experimental: as §2, §3, §4

[9] = system: DU145 human prostate cancer cell line; assay: In vitro cytotoxicity (MTT), DU145; type: cell-based; conditions: DU145, 72 h, FIG. 14C
Experimental: as §2, §3, §4

solubility ([1]; tested agent itself, Table 1): freely
Soluble at ([1]; with multi-chain PEGylated micelle-forming surfactant): 5 mg/mL
Size +/− SD [2]: 89.9 +/− 12 nm
Molecule: O=C(O[C@@H]1Cc2c(O)cc(O)cc2O[C@@H]1c1cc(O)c(O)c(O)c1)c1cc(O)c(O)c(O)c1 [EGCG, epigallocatechin gallate]
Oxidation on storage [3]: readily oxidized

Molecule: Triton X-100
Hemolysis (rat red blood cells): 100%

Molecule: methoxy PEG2,000-carbamoyl-1-palmitoyl-2-oleoyl-sn-glycero-3-phosphotidylethanolamine [compound 8]
Activity in forming a stable JP4-039-containing micelle solution [4]: inactive

Molecule: PEG5K-lysyl-(α-Fmoc-ε-t-Boc-lysine)2 [PEG-Fmoc]
Micelle size in aqueous solution ([5]; carrier alone): 25˜30 nm
PDI ([5]; drug-free carrier 5 mg/mL): 0.488
Particle size ([5]; drug-free carrier 5 mg/mL): 28.55 ± 0.27 nm
CMC [6]: 5.244 µM
Cytotoxicity (tumor cell inhibition) [7]: did not show apparent toxicity
Cytotoxicity (tumor cell inhibition) [8]: did not show apparent toxicity
Cytotoxicity (tumor cell inhibition) [9]: did not show apparent toxicity
